Measurements published in PubChem BioAssay AID179 (DTP/NCI, 2004).
Several values for one entry are separate records, joined by “and”; a condition that tells them apart may be missing. Equal entries are not always repeated. Activity calls are given as the source filed them.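 How the source made its calls: active means compounds giving half or more protection of infected cells from virus-caused growth loss, again on retest; inactive means the rest.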 Where a SMILES comes first, the peptide text is derived from it. The star is where a group is joined. Cbz = O=C(OCc1ccccc1)*; Boc = CC(C)(C)OC(=O)*; Bn = c1ccc(C*)cc1

Test system: CEM cells HIV-1 protection, formazan growth assay
Experiment: NCI AIDS Antiviral Assay
Details: for IC50: measured here: growth of uninfected CEM cells
Summary of the method: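 Five concentrations of each compound were applied to infected and uninfected human CEM cells. Protection from HIV-1 was judged from growth measured with a soluble formazan assay.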

Compound | outcome | EC50 | IC50
Nc1c(O)cc(N=C2C(=O)C=CC=C2C(=O)O)c(O)c1C(=O)O | inactive |  | 
CN(C)P1(=O)OCC2CCC[C@@H]2O1 (some centres not stated) | inactive |  | 
CCCCCCCCCCCC(=O)Oc1c(Cl)cc(Cl)c(OC(=O)C(=O)Oc2c(Cl)cc(Cl)c(OC(=O)CCCCCCCCCCC)c2Cl)c1Cl | inactive |  | 
CNC(=O)OCc1cnc([N+](=O)[O-])n1C |  | > 200 µM | > 200 µM
COc1cccc(N2C(=O)CC(Sc3ccccc3N)C2=O)c1 (configuration not stated) |  | > 200 µM | > 200 µM
N#Cc1ccc(Oc2ccccc2)cc1C#N |  | > 45.7 µM | > 45.7 µM
Cc1cc2[nH]c3[nH]c(=O)[nH]c(=O)c3c2cc1C |  | > 200 µM | 170 µM
CC1(C)CNC[C@](C)(OCCO)C(=O)[N-]C(C)(C)CNC[C@@](C)(OCCO)C(=O)[N-]1.[Ni+2] |  | > 200 µM | 182 µM
C/C(N=NS(=O)(=O)c1ccc([N+](=O)[O-])cc1)=C1\C=CC=CN1O | inactive |  | 
COc1ccc2c(c1)c1ccc3c(c1n2C)C(=O)C=CC3=O |  | > 89.1 µM | 2.95 µM
O=C(CP(=O)(c1ccccc1)c1ccccc1)c1cccc(C(=O)CP(=O)(c2ccccc2)c2ccccc2)c1 |  | > 200 µM | 158 µM
CC1C(=O)N=C2C(=CN(Cc3ccccc3)c3ccccc32)C(=O)N1C (configuration not stated) | inactive |  | 
O=C(O)c1ccccc1C(=O)OCC1CCCN2CCCCC12 (configuration not stated) |  | > 151 µM | > 151 µM
O=C(Nc1ccc(Cl)cc1Cl)C1C(=O)N(c2ccc(Cl)cc2Cl)C(=O)/C1=N\Nc1ccc([N+](=O)[O-])cc1[N+](=O)[O-] (configuration not stated) |  | > 1.66 µM | > 1.66 µM
CCCCCCCC1C(C)c2c([nH]c3ccccc23)C2C(=O)N(c3ccc(OC)cc3)C(=O)C21 (configuration not stated) |  | > 200 µM | 10.2 µM
COC(=O)c1ccc2cc1Nc1c(C#N)cnc(=S)n1-2 |  | > 603 µM | 363 µM
CC/C=C1\N=C(c2ccc(Cl)cc2)OC1=O |  | > 151 µM | 126 µM
CCN(CC)c1cccc2c1/C(=N/O)CCCC2 |  | > 200 µM | 120 µM
COC(=O)C1Cc2c([nH]c3ccccc23)C(C2CCCCC2)N1 (configuration not stated) | inactive |  | 
O=C(Nc1ccc2c(O)c(N=Nc3ccccc3)c(S(=O)(=O)O)cc2c1)Nc1ccc2c(O)c(N=Nc3ccccc3)c(S(=O)(=O)O)cc2c1 |  | 40.7 µM | 50.1 µM and 191 µM
CCCN(CCC)C1=Nc2ccccc2-n2cnnc2C1 |  | > 200 µM | 178 µM
N#C/C=C/c1cccc(Cl)c1 |  | > 60.3 µM | > 60.3 µM

Compound | outcome | EC50 | IC50
C=C1C(=O)C23C(O)C1CC[C@H]2C12CCCC(C)(COC(C)=O)[C@H]1[C@H](O)[C@]3(O)OC2 (some centres not stated) |  | > 324 µM | 0.398 µM
Cc1nc2ccccc2c(=O)n1NC(=O)c1ccccc1O |  | > 200 µM | 38 µM
CC(C)C1CCC/C=C/C=C/C=C/C=C/C(OC2OC(C)C(O)C(N)C2O)CC2OC(O)(CC(O)CC(O)C(O)CCC(=O)O1)CC(O)C2C(=O)O (configuration not stated) |  | > 339 µM | > 339 µM
CCOC(=O)/C(=C/c1ccc(C(F)(F)F)cc1)N(CC)CC |  | > 158 µM | 64.6 µM
COc1ccc(N=C/C=C/C(=C/COC(C)=O)OC(C)=O)cc1 |  | > 200 µM | 11.5 µM
Cc1ccc(S(=O)(=O)OC2C3C=CC2C2CSCC32)cc1 (configuration not stated) |  | > 100 µM | > 100 µM
CCC1(O)CN(CCOC)[C@H]2C[C@@H]1C(=O)c1[nH]c3ccccc3c12 (some centres not stated) |  | > 200 µM | > 200 µM
Clc1ncc(Cl)c(Cl)n1 | inactive |  | 
Cn1cc(B(O)O)c(=O)[nH]c1=O |  | > 200 µM | > 200 µM
COC(=O)C(Cc1nc2ccccc2nc1C)/C(=N\NC(N)=O)C(=O)Nc1cccc([N+](=O)[O-])c1 (configuration not stated) |  | > 15.1 µM | > 15.1 µM
COC(=O)C12CC(c3ccccc31)C1C(=O)OC(=O)C12 (configuration not stated) |  | > 132 µM | > 132 µM
NC(=O)CNC(=O)c1ccc([As](=O)(O)O)cc1 |  | > 200 µM | > 200 µM
CC(C)(C)C(=O)OC1CCOP(=O)(OCC2OC(n3cc(F)c(=O)[nH]c3=O)CC2O)O1 (configuration not stated) |  | > 200 µM | 2.69 µM
O=C(NCc1ccc(Cl)cc1)c1cc2sccc2nc1C(F)(F)F |  | 93.3 µM | > 200 µM
CCC(=O)OCNC(=O)NNC(=O)CCCC(=O)NNC(=O)NCOC(=O)CC |  | > 200 µM | > 200 µM
COc1ccc(S(=O)Cc2cc(OC)ccc2OC)cc1 (configuration not stated) | inactive |  | 
CN(C)c1ccc(/C=C/c2ccc3ccccc3[n+]2C)cc1 |  | 0.0631 µM | 0.398 µM
CN1CC2(c3ccccc3)CN(C)CC(c3ccccc3)(C1)C2=O |  | > 112 µM | > 112 µM
CCSCCCCCCCCCCC(=O)OCC1OC(n2cc(C)c(=O)[nH]c2=O)CC1N=[N+]=[N-] (configuration not stated) |  | 0.0479 µM | 49 µM
N#Cc1ncn(CCO)c1N |  | > 200 µM | > 200 µM
CCC(=O)CCC1=Nc2nnc(CCCCc3nnc4n3C(=O)C(CCC(=O)CC)=N4)n2C1=O |  | 427 µM | 537 µM
O=C(O)c1c(O)c2cc([N+](=O)[O-])ccc2oc1=O |  | > 324 µM | > 324 µM

Compound | outcome | EC50 | IC50
O=C(Nc1ccccc1[N+](=O)[O-])/C(=N/Nc1cccc(Cl)c1)c1c(O)c2ccccc2oc1=O |  | > 53.7 µM | > 53.7 µM
CCCCCCCCCCCCCCCCCCOC(COP(=O)(O)OCC1OC(n2cc(F)c(=O)[nH]c2=O)CC1O)COP(=O)(O)OCC1OC(n2cc(C)c(=O)[nH]c2=O)CC1N=[N+]=[N-] (configuration not stated) |  | > 5.75 µM | 0.0501 µM
NC(=O)C(=CNC(=S)Nc1ccccc1)C(N)=O |  | > 200 µM | > 200 µM
COc1nn(C)c(=O)c2cccnc12 |  | > 1100 µM | 676 µM
O=Cc1c(C(=O)O)[nH]c(=O)[nH]c1=O |  | > 200 µM | > 200 µM
N=C1SCc2c1sc1ccccc21 |  | > 56.2 µM | 28.8 µM
O=C(O)C1(C(=O)O)CC1(C(=O)O)C(=O)O | inactive |  | 
C=C1C(=O)OC2/C=C(\C)CC(O)/C=C(\C)CC(OC(=O)/C(=C\C)COC(C)=O)C12 (configuration not stated) |  | > 115 µM | 0.407 µM
CN1CCN(c2cc3c(cc2F)c(=O)c(C(=O)O)cn3C2CC2)CC1CC#N (configuration not stated) |  | > 200 µM | 148 µM
CC(C)(C)[Si](C)(C)O[C@@H](C(=O)OC1C=CCCC1)[C@@H](NC(=O)c1ccccc1)c1ccccc1 (some centres not stated) |  | > 200 µM | 12.3 µM
COC(=O)C1(C(C)C)CCc2c(OC)ccc(OC)c2C1=O (configuration not stated) | inactive |  | 
Cc1ccccc1NC(=O)c1[nH]c(=S)nc(N)c1-c1ccccc1C |  | > 97.7 µM | > 97.7 µM
S=C(Nc1ccc(Br)cn1)Nc1ccccc1-c1ccccc1 |  | > 2 µM | 0.389 µM
CN(C)c1ccc(C=C(C(=O)O)C(=O)O)cc1 |  | > 550 µM | > 550 µM
N[C@@H]1C(CO)NC[C@@H]1CO (some centres not stated) |  | > 200 µM | > 200 µM
CO/C(N)=C(\C#N)N=Cc1ccccc1 |  | > 200 µM | 105 µM
CC1=CC=CC(C)(C)CC1(O[Si](C)(C)C)C(F)(F)F (configuration not stated) |  | > 200 µM | 148 µM
FC(F)=C(c1ccc(-c2ccc(Cl)cc2)cc1)C(F)(F)F |  | > 200 µM | 20.9 µM
O=C(/C=C/c1ccccc1Cl)c1ccc(Cl)c(Cl)c1 |  | > 8.71 µM | > 8.71 µM
[O]=[Sb]([OH])([OH])[c]1ccccc1 |  | > 200 µM | 77.6 µM and > 200 µM
COC(=O)CCC(=O)N1Cc2cc(C)ccc2N(C(=O)CCC(=O)OC)Cc2cc(C)ccc21 | inactive |  | 
Cc1cn(C2C/C(=C\C#N)C(CO[Si](C)(C)C(C)(C)C)O2)c(=O)[nH]c1=O (configuration not stated) |  | > 200 µM | 182 µM

Compound | outcome | EC50 | IC50
CN(Nc1cc(=O)[nH]c(=O)[nH]1)c1ccccc1 |  | > 200 µM | > 200 µM
CC(C)c1cc(C(C)C)c(S(=O)(=O)N=[N+]=[N-])c(C(C)C)c1 |  | > 17 µM | > 17 µM
CCOC(=O)c1cc2c(nc1N)C(=O)CCCC2 |  | > 200 µM | 148 µM
COC(=O)C1=C(C(=O)OC)N(C(C)C)[C@H]2C(C(=O)OC)=C(C(=O)OC)N(C(C)C)[C@@H]12 |  | > 2.45 µM | > 2.45 µM
N=c1oc2cc(O)c(O)cc2cc1C(N)=O |  | > 8.32 µM | 7.41 µM
CNc1ncnc2nc(OC)[nH]c12 |  | > 105 µM | > 105 µM
CCc1[nH]nc(-c2ccc(OC)cc2)c1-c1ccccc1O |  | > 200 µM | 20.9 µM
[N-]=[N+]=Nc1ccc(CCN2CCN(c3cccc(C(F)(F)F)c3)CC2)cc1I | inactive |  | 
CCOC(=O)c1ccc(CSc2ccccc2C(=O)OCC)c([N+](=O)[O-])c1 |  | > 7.08 µM | > 7.08 µM
N#Cc1c(-c2ccco2)cc(-c2ccccc2)[nH]c1=O |  | > 20 µM | > 20 µM
CCCCCCC(=O)COP(=O)(OCC(=O)CCCCCC)OCC1C=CC(n2cc(C)c(=O)[nH]c2=O)O1 (configuration not stated) |  | 0.562 µM | 174 µM
Cc1ccc2nc(-c3ccccc3Cl)[nH]c2c1 |  | 14.8 µM | 29.5 µM
N#CC(C#N)c1ccc(C(=O)N2CCC[C@H]2CO)cc1 | inactive |  | 
CC1(C)/C(=C/N=O)N(O)C(C)(C)N1O |  | > 200 µM | 120 µM
CN1CN(c2ccccc2)C2(CCN(CCCSc3ccccc3NC(=O)/C=C/c3ccccc3)CC2)C1=O |  | > 200 µM | 3.31 µM
CC(C)(C)OC(=O)NC(Cc1ccc(OCc2ccccc2)cc1)C(=O)NC(CCCCNC(=O)OCc1ccccc1)C(=O)O (configuration not stated) (Boc-Tyr(Bn)-Lys(Cbz)-OH; configuration not given here) |  | > 200 µM | 75.9 µM
CC1C=C(CCCCCCCCCCCC[C@@H](O)[C@@H]2CC[C@@H]([C@@H]3CC[C@@H](C(O)CCCCCCCCCCCCC4=C[C@H](C)OC4=O)O3)O2)C(=O)O1 (some centres not stated) |  | > 200 µM | 0.204 µM
O=C(NCCCl)Nc1ccccn1 |  | > 200 µM | > 200 µM
NC(CSS(=O)(=O)O)=NC1CC1 |  | > 200 µM | > 200 µM
COC[C@H](C)N=CN1CCc2ccccc2C1(Cc1ccccc1)Cc1ccccc1 |  | > 33.1 µM | > 33.1 µM
O=C1CCC2(c3ccc(F)cc3)Nc3ccccc3N12 (configuration not stated) | inactive |  | 
CC(C)(C)S(=O)OC12CC3CC(CC(C3)C1)C2 (configuration not stated) |  | > 708 µM | 151 µM
